“Also recorded” adds a separate entry of the source.
Legend:
Assay type in all cases: physicochemical
[1] = Volatilization measurements (ammonia release, 2 L diffusion kit, Draeger tube); settings: YaraVera Amidas product comprising 462 ppm nBTPT, treated with stabilizer (FIG. 1, Table 1)
From the text: 1. Volatilization Measurements (Ammonia Release 2 L Diffusion Kit) […] Through the lid, a […] tube is placed for the measurement of vol % ammonia. The […] tube turns from yellow to bleu/purple when ammonia is absorbed by the tube. The amount of vol % ammonia released can be followed in time. Experiment 1 defines the problem.

[2] = Stability of nBTPT on urea ammonium sulphate (YaraVera Amidas) during storage, HPLC analysis of nBTPT content; settings: for Stabilizing effect on nBTPT (MgSO4/MgO combinations): Experiment 4: YaraVera Amidas product comprising 462 ppm nBTPT (FIG. 4)
Experimental: For lab scale experiments, 1.2 kg of solid fertilizer material was added to a lab scale drum. […] A residence time of 10 minutes was applied and the rotating speed of the drum was consequently the same in each experiment. […] Before use, the moisture-repellent coating was preheated to 80° C. Larger scale experiments with amounts up to 40 kg of fertilizer material were performed in a concrete mixer. The samples were stored under several conditions, dependent on the type of samples: • Bagged at room temperature (18-25° C.) • Bagged at 40° C. • Open to air at room temperature (18-25° C.) 3.

[3] = pH of MgSO4 grades

SMILES: [O]=[Ca] [CaO, calcium oxide]
- Ammonia release [1]: producing ammonia

SMILES: O=S(=O)([O-])[O-].[Ca+2] [CaSO4, CaSO4 anhydrous]
- Ammonia release [1]: no ammonia release

SMILES: [O]=[Mg] [MgO, magnesium oxide, reference compound]
- Stabilizing effect on nBTPT (MgSO4/MgO combinations) [2]: more effective than CaO
- Ammonia release [1]: producing ammonia

SMILES: O=S(=O)([O-])[O-].[Mg+2] [MgSO4 99.5%, MgSO4 anhydrous, >99.5%]
- pH [3]: 8.5

SMILES: O=S(=O)([O-])[O-].[Mg+2] [MgSO4 99.999%, MgSO4 anhydrous, 99.999%]
- pH [3]: 6.1

SMILES: O=S(=O)([O-])[O-].[Mg+2] [MgSO4, magnesium sulphate]
- Stabilizing effect on nBTPT in the presence of UAS ([2]; Experiment 2: open to air at room temperature 40 days (FIG. 2A) and in bags at 40 °C 8 days (FIG. 2B), 462 ppm nBTPT): comparable with the effect of the prior art compound (CaO)
- Stabilizing effect on nBTPT (MgSO4/MgO combinations) [2]: little effect
- Stabilizing effect at higher level of magnesium sulphate ([2]; more than 1 weight % magnesium sulphate in the composition): did not produce a proportionally better stabilizing effect
- Ammonia release [1]: no ammonia release; also recorded: no ammonia is generated

SMILES: O=S(=O)([O-])[O-].[Na+].[Na+] [Na2SO4, reference compound]
- nBTPT stability on the YaraVera Amidas product ([2]; Experiment 3: open plastic containers at room temperature for 21 days, 462 ppm nBTPT (FIG. 3)): negative effect on the stability of nBTPT
